Test results taken from ChEMBL document CHEMBL1697821, “Development of a phospholipidosis database and predictive quantitative structure-activity relationship (QSAR) models” (Toxicol Mech Methods, 2008).

Test system: Phospholipidosis
Test: Literature-mined public compounds from Kruhlak et al phospholipidosis modelling dataset

| Compound | Phospholipidosis |
| --- | --- |
| O[C@H]1[C@H](O)[C@@H](O)[C@H](O)[C@@H](O)[C@H]1O [INOSITOL] | Negative: based on the absence of positive reported data from WMDD |
| CN(C)CCCN1c2ccccc2Sc2ccccc21 [PROMAZINE] | Positive: weak inducer based on presence of foamy macrophages and cytoplasmic vacuolations |
| CC(C(=O)O)c1ccc2c(c1)Cc1cccnc1O2 (stereo not drawn) [PRANOPROFEN] | Negative: based on the absence of positive reported data from WMDD |
| c1ccc([C@H]2CN3CCSC3=N2)cc1 [LEVAMISOLE] | Negative: based on the absence of positive reported data from WMDD |
| CC(=O)Nc1ccc(OC(=O)c2ccccc2OC(C)=O)cc1 [BENORILATE] | Negative: based on the absence of positive reported data from WMDD |
| CC[C@H]1OC(=O)[C@H](C)[C@@H](O[C@H]2C[C@@](C)(OC)[C@@H](O)[C@H](C)O2)[C@H](C)[C@@H](O[C@@H]2O[C@H](C)C[C@H](N(C)C)[C@H]2O)[C@](C)(OC)C[C@@H](C)C(=O)[C@H](C)[C@@H](O)[C@]1(C)O [CLARITHROMYCIN] | Negative: confirmed by electron microscopy |
| C[C@H]1[C@H](c2ccccc2)OCCN1C [PHENDIMETRAZINE] | Negative: based on the absence of positive reported data from WMDD |
| CC(CCc1ccccc1)NCC(O)c1ccc(O)c(C(N)=O)c1 (stereo not drawn) [LABETALOL] | Positive: weak inducer based on presence of foamy macrophages and cytoplasmic vacuolations |
| CC(C(=O)O)c1cccc(Oc2ccccc2)c1 (stereo not drawn) [FENOPROFEN] | Negative: based on the absence of positive reported data from WMDD |
| CCN(CC)CCn1nc2c3c(c(C)ccc31)Sc1cc(Cl)ccc1-2 | Positive: strong inducer confirmed by electron microscopy |
| C=C[C@H]1C[N@@]2CC[C@H]1C[C@@H]2[C@@H](O)c1ccnc2ccc(OC)cc12 [QUINIDINE] | Positive: weak inducer based on presence of foamy macrophages and cytoplasmic vacuolations |
| CCCC(=O)O[C@H]1[C@H](C)O[C@@H](O[C@H]2[C@H](N(C)C)[C@@H](O)[C@H](O[C@H]3[C@@H](CC=O)C[C@@H](C)[C@@H](O)/C=C/C=C/C[C@@H](C)OC(=O)C[C@@H](O)[C@@H]3OC)O[C@@H]2C)C[C@@]1(C)OC(=O)CC [ROKITAMYCIN] | Negative: based on the absence of positive reported data from WMDD |
| C[C@@H]1O[C@@H](O[C@@H]2C=C3CC[C@@H]4[C@H](CC[C@]5(C)[C@@H](c6ccc(=O)oc6)CC[C@]45O)[C@@]3(C)CC2)[C@H](O)[C@H](O)[C@H]1O [PROSCILLARIDIN] | Negative: based on the absence of positive reported data from WMDD |
